Source: publication PMC5614969, “High-Affinity Functional Fluorescent Ligands for Human β-Adrenoceptors” (Scientific Reports, 2017)
Where two headings read alike, the source gives them in different places.

Tests used:
[1] = target: T1, β2AR (Homo sapiens, UniProt P07550); test: cAMP FRET sensor (TEpacVV) agonist assay in HEK 293 cells; assay type: cell-based; settings: for intracellular cAMP level: addition of probe to the cells, 60 min at room temperature (Suppl. Fig. 13)
Description: Upon cAMP binding, the sensor undergoes a conformational change resulting in a decrease of the FRET efficiency between two fluorescent proteins: mTurquoise - a version of cyan fluorescent protein (CFP) as the donor, and yellow fluorescent protein (YFP) as the acceptor (Fig. 3a).
The intracellular cyclic adenosine monophosphate (cAMP) levels were determined with HEK 293 cells expressing a 3′,5′-cAMP FRET sensor. The cells were a generous gift from Ruud Hovius from École poly-technique fédérale de Lausanne (EPFL). The cAMP production induces a conformational switch in ^TEpac^VV and causes a decrease in FRET efficiency, i.e. a decreased energy transfer between the two fluorescent proteins (donor mTurquoise and acceptor YFP)[32].
(§1) The culture was maintained by subculturing the cells every 4 to 5 days using the standard trypsinization procedure. Before measurements, cells were trypsinated and transferred in a 96-well glass bottom plate (MatTek Corporation; Cat. No. P96GC-1.5–5-F) to contain 10,000–30,000 cells per well in 200 µL of DMEM media. After 24 h incubation in 5% CO2 at 37 °C, the cells were washed with HBSS pH 7.2 (200 µL), and the wells were filled with 200 µL HBSS. The DMSO stock solutions of the fluorescent probes were diluted 5,000 times in HBSS and used in experiments. […] The fluorescent ligand solutions of different concentrations in HBSS were premixed with the isoprenaline solution. 50 µL of a final solution was added to each well and the measurement was started upon addition and continued for 1 h in 10 min intervals between the readouts (inclusive).
(§2) The ligands were added using an automated pipette to initiate the sensor response. FRET readout from the cAMP sensor was performed on a multiwell plate reader Spark 20 M (Tecan) at room temperature (25 °C). Fluorescence readout amplitudes were calculated from time series for different ligand concentrations, following background subtraction (media only). […] Data were derived from 3 independent experiments and each independent experiment was performed in triplicate.
(§3) Sensor response R(CFP/FRET) was calculated using (1):1 R(CFP/FRET)=(FimTurquoise−FbkgmTurquoise)/(FiFRET−FbkgFRET) where F i ^mTurquoise – mTurquoise fluorescence intensity in the wells with cells; F bkg ^mTurquoise - mTurquoise fluorescence intensity in the control wells without cells; F i ^FRET – FRET signal intensity in the wells with cells; F bkg ^FRET – FRET signal intensity in the control wells without cells. For every result, R(CFP/FRET) ratio was normalized to the R(CFP/FRET) response of DMSO sample.

[2] = target: T2, β2AR-YFP fusion protein (Homo sapiens, UniProt P07550); test: Confocal imaging of living U2OS cells expressing β2AR-YFP (staining, internalization, competitive displacement, no-wash); assay type: cell-based; settings: for Receptor internalization / Staining performance: U2OS cells expressing β2AR-YFP; for Staining performance: 610CP ligands at 1.9 µM (19) and 2.5 µM (16); for Competitive displacement: 100 nM probe (5 nM ab118171) with 10 µM unlabeled BI-167107 or carazolol, 30 min
T2 construct: host or cells: U2OS
T2 sequence (P07550 whole entry, the tested form may be a part): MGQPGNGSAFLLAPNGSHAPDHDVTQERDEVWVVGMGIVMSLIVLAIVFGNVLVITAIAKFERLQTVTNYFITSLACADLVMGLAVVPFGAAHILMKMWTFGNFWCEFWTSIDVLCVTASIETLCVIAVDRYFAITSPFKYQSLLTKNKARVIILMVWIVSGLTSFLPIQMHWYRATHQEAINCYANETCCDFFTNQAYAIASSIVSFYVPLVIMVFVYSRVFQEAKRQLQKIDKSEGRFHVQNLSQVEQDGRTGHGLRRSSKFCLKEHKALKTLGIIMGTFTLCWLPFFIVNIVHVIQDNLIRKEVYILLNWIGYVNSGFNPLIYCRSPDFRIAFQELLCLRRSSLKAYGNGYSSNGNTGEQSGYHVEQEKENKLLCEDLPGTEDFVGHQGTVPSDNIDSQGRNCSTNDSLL
Description: U2OS cells (ATCC) were cultured in high-glucose DMEM (Dulbecco’s Modified Eagle medium, Thermo Fisher Scientific) supplemented with GlutaMAX-1 (Thermo Fisher Scientific) and 10% fetal bovine serum (FBS) (Thermo Fisher Scientific) in a humidified 5% CO2 incubator at 37 °C. CAPAN-1 cells (ATCC) were cultured in McCoy’s 5a Medium Modified supplemented with 10% fetal bovine serum (FBS) (Thermo Fisher Scientific) in a humidified 5% CO2 atmosphere at 37 °C. Cells were split every 3–5 days or at confluence. Cells were seeded in glass bottom 12-well plates (MatTek Corporation). […] We used 200,000 cells per well, 3 µg plasmid DNA and 3 µl of Lipofectamine 2000.
We performed imaging 48–72 h after transfection. Staining of the transfected cell was performed in Hanks’ balanced salt solution (HBSS, Lonza) without Phenol Red for 30–40 min at room temperature (to minimize internalization). Samples were washed two times with HBSS, and cells were imaged in DMEM (Thermo Fisher Scientific) supplemented with GlutaMAX-1 (Thermo Fisher Scientific) and 10% fetal bovine serum (FBS). For all staining experiments with cells, stock solutions of dyes in DMSO were used, and final DMSO content was < 0.5%. Imaging was performed on Leica SP8 (Leica Microsystems) or Abberior STED (Abberior Instruments GmbH) microscopes.
Competitive displacement experiment was performed in living U2OS cells expressing β2AR-YFP fusion protein.
Confocal imaging was performed on a Leica SP8 (Leica Microsystems, Mannheim, Germany) inverted confocal microscope equipped with an HC PL APO CS2 63x/1.40 Oil objective. Images were acquired using a 700 Hz bidirectional scanner, pixel size of 70 nm × 70 nm, pinhole of 95.6 µm diameter(1 AU) and frame averaging of 2.

[3] = pH dependence of ligand fluorescence; assay type: physicochemical
Description: pH dependence of βAR ligands fluorescence were recorded on a multiwell plate reader Spark 20 M (Tecan) in 96-well glass bottom plates (MatTek Corporation; Cat. No. PBK96G-1.5-5-F) in PBS solutions (pH 4.7–8.0) at room temperature (25 °C). The 100x stock solutions of ligands were prepared in DMSO.

[4] = target: T1, β2AR; test: cAMP FRET sensor assay, competitive displacement of isoprenaline by antagonists in HEK293 cells; assay type: cell-based
Description: as §1, with “experiments. In the antagonist inhibition experiment, we used β1 and β2 adrenoceptor agonist isoprenaline (abcr GmbH) as a positive control causing cAMP elevation.” for “experiments.”
as §2, §3
K i ^app were calculated using the Cheng-Prusoff equation (2):2 Kiapp=IC50/[A]/EC50+1 where [A] – concentration of the isoprenaline; IC50 – fitted half maximal inhibitory concentration of labeled antagonist; EC50 – fitted half maximal response concentration of isoprenaline.

[5] = target: T2, β2AR-YFP fusion protein; test: Confocal imaging of living U2OS cells expressing β2AR-YFP (staining, internalization, competitive displacement, no-wash); assay type: cell-based; settings: 90 min, 100 nM carazolol-KK114 (24), 5 nM ab118171, no washing

T1 sequence (P07550 whole entry): as the sequence (P07550 whole entry, the tested form may be a part) above

SMILES | EC50 ([1]; HEK 293 expressing 3′,5′-cAMP FRET sensor, 30 min incubation, room temperature, read-out: EC50 (mean ± SD)) [nM] | intracellular cAMP level [1] | Receptor internalization [2] | Staining performance [2] | Competitive displacement ([2]; U2OS β2AR-YFP) | confocal staining at 100 nM ([2]; U2OS β2AR-YFP, 100 nM, 40 min, room temperature, washed) | confocal staining at 250 nM ([2]; U2OS β2AR-YFP, 250 nM, 40 min, room temperature, washed) | emission intensity decrease ([3]; at pH 8.0) [%] | IC50 ([4]; 17 nM isoprenaline, 30 min incubation time, read-out: IC50) [nM] | Ki ([4]; Cheng-Prusoff from IC50 right after addition of ligands, 17 nM isoprenaline, read-out: Ki app (mean ± SD)) [nM] | IC50 ([4]; displacement of 17 nM isoprenaline, readout immediately after addition of ligands (0 min), read-out: IC50 (mean ± SD)) [nM] | Ki ([4]; measurement 30 min after addition of the ligands, read-out: Ki app) [nM] | Receptor internalization ([2]; listed as carazolol-KK114 (24)) | confocal staining at all tested concentrations ([2]; U2OS β2AR-YFP, 5 nM, 100 nM, 250 nM, 40 min) | Competitive displacement ([2]; U2OS β2AR-YFP, listed as Carazalol-KK114 (24)) | fluorescence intensity retained relative to maximal ([3]; pH ~7 versus pH ~5) | no-wash imaging staining [5]
Cc1c(CCC(=O)NCCOCCOCCNC(=O)CCN(C)C(=O)c2c(F)c(F)c(F)c(F)c2C2=c3cc4c5c(c3Oc3c2cc2c6c3CCCN6C(C)(C)C=C2CS(=O)(=O)O)CCC[N+]=5C(C)(C)C=C4CS(=O)(=O)[O-])cccc1CC(C)(C)NCC(O)c1ccc(O)c2c1OCC(=O)N2 (stereo not drawn) [BI-PEG-KK114 (18)] | 5.7 ± 2.2 | induces intracellular cAMP level increase | triggered extensive βAR internalization and Yes | Strong | no signal and Yes | performed well | performed well | 30 | – | – | – | – | – | – | – | – | –
CN(CCC(=O)NCCOCCOCCOCCOCCC(=O)NCCC(C)(C)NCC(O)COc1cccc2[nH]c3ccccc3c12)C(=O)c1c(F)c(F)c(F)c(F)c1C1=c2cc3c4c(c2Oc2c1cc1c5c2CCCN5C(C)(C)C=C1CS(=O)(=O)O)CCC[N+]=4C(C)(C)C=C3CS(=O)(=O)[O-] (stereo not drawn) [Carazolol-KK114 (24)] | – | did not change | Weak | Strong | Yes | – | – | – | 444 ± 79 | 162 ± 76 | 2450 ± 494 | 29.3 ± 15 | did not change | specific staining | no background fluorescence | about 90% | specific staining
